Results as given in ChEMBL document CHEMBL1201862, “PubChem BioAssay data set” (2004).
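Growth conditions: 96-well plates. Treatment: test compound, 48 hours, 5 concentrations. Analysis: linear interpolation between bracketing concentrations; unreached endpoints set to highest concentration. GI50 is the concentration that inhibits growth by half.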 Active and inactive are the calls of the source. No stated cut-off is given here; in the data, active = GI50 up to about 1.1 µM and inactive = higher.

How the values were obtained:
Test in all cases: NCI-60 cell line screen, 48 h
UACC-62 = system: UACC-62
HT-29 = system: HT-29
A498 = system: A498
SR = system: SR
TK-10 = system: TK-10
UO-31 = system: UO-31
K562 = system: K562
BT-549 = system: BT-549
Hs-578T = system: Hs-578T
MDA-N = system: MDA-N
IGROV-1 = system: IGROV-1
OVCAR-5 = system: OVCAR-5
SF-539 = system: SF-539
SN12C = system: SN12C
HCT-116 = system: HCT-116
Malme-3M = system: Malme-3M
A549 = system: A549
OVCAR-8 = system: OVCAR-8
UACC-257 = system: UACC-257
RPMI-8226 = system: RPMI-8226
T47D = system: T47D
KM12 = system: KM12
CCRF-CEM = system: CCRF-CEM
SNB-75 = system: SNB-75
MCF7 = system: MCF7
PC-3 = system: PC-3
HOP-92 = system: HOP-92
NCI/ADR-RES = system: NCI/ADR-RES
HOP-62 = system: HOP-62
EKVX = system: EKVX
RXF 393 = system: RXF 393
SK-MEL-5 = system: SK-MEL-5
HCT-15 = system: HCT-15
NCI-H522 = system: NCI-H522
M14 = system: M14
OVCAR-4 = system: OVCAR-4
DU-145 = system: DU-145
MDA-MB-231 = system: MDA-MB-231
OVCAR-3 = system: OVCAR-3
NCI-H23 = system: NCI-H23
SK-MEL-28 = system: SK-MEL-28
COLO 205 = system: COLO 205
MOLT-4 = system: MOLT-4
LOX IMVI = system: LOX IMVI
U-251 = system: U-251
MDA-MB-435 = system: MDA-MB-435
786-0 = system: 786-0
CAKI-1 = system: CAKI-1
SK-MEL-2 = system: SK-MEL-2
SW-620 = system: SW-620
SF-268 = system: SF-268
SK-OV-3 = system: SK-OV-3
ACHN = system: ACHN
NCI-H460 = system: NCI-H460
SNB-19 = system: SNB-19
HCC 2998 = system: HCC 2998
SF-295 = system: SF-295

C[N+](C)(C)c1nc(N)nc2c1ncn2C1OC(CO)C(O)C1O (configuration not stated)
GI50 (UACC-62): > 100 µM (inactive) | GI50 (HT-29): > 100 µM (inactive) | GI50 (A498): > 100 µM (inactive) | GI50 (SR): > 100 µM (inactive) | GI50 (TK-10): > 100 µM (inactive) | GI50 (UO-31): > 100 µM (inactive) | GI50 (K562): > 100 µM (inactive) | GI50 (BT-549): > 100 µM (inactive) | GI50 (Hs-578T): > 100 µM (inactive) | GI50 (MDA-N): > 100 µM (inactive) | GI50 (IGROV-1): > 100 µM (inactive) | GI50 (OVCAR-5): > 100 µM (inactive) | GI50 (SF-539): > 100 µM (inactive) | GI50 (SN12C): > 100 µM (inactive) | GI50 (HCT-116): > 100 µM (inactive) | GI50 (Malme-3M): > 100 µM (inactive) | GI50 (A549): > 100 µM (inactive) | GI50 (OVCAR-8): > 100 µM (inactive) | GI50 (UACC-257): > 100 µM (inactive) | GI50 (RPMI-8226): > 100 µM (inactive) | GI50 (T47D): > 100 µM (inactive) | GI50 (KM12): > 100 µM (inactive) | GI50 (CCRF-CEM): 3.08 µM (inactive) | GI50 (SNB-75): > 100 µM (inactive) | GI50 (MCF7): > 100 µM (inactive) | GI50 (PC-3): > 100 µM (inactive) | GI50 (HOP-92): > 100 µM (inactive) | GI50 (NCI/ADR-RES): > 100 µM (inactive) | GI50 (HOP-62): > 100 µM (inactive) | GI50 (EKVX): > 100 µM (inactive) | GI50 (RXF 393): > 100 µM (inactive) | GI50 (SK-MEL-5): > 100 µM (inactive) | GI50 (HCT-15): > 100 µM | GI50 (NCI-H522): > 100 µM (inactive) | GI50 (M14): > 100 µM (inactive) | GI50 (OVCAR-4): > 100 µM (inactive) | GI50 (DU-145): > 100 µM (inactive) | GI50 (MDA-MB-231): > 100 µM (inactive) | GI50 (OVCAR-3): > 100 µM (inactive) | GI50 (NCI-H23): > 100 µM (inactive) | GI50 (SK-MEL-28): > 100 µM (inactive) | GI50 (COLO 205): > 100 µM (inactive) | GI50 (MOLT-4): > 100 µM (inactive) | GI50 (LOX IMVI): > 100 µM (inactive) | GI50 (U-251): > 100 µM (inactive) | GI50 (MDA-MB-435): > 100 µM (inactive) | GI50 (786-0): > 100 µM (inactive) | GI50 (CAKI-1): > 100 µM (inactive) | GI50 (SK-MEL-2): > 100 µM (inactive) | GI50 (SW-620): > 100 µM (inactive) | GI50 (SF-268): > 100 µM (inactive) | GI50 (SK-OV-3): > 100 µM (inactive) | GI50 (ACHN): > 100 µM (inactive) | GI50 (NCI-H460): > 100 µM (inactive) | GI50 (SNB-19): > 100 µM (inactive) | GI50 (HCC 2998): > 100 µM (inactive)

CC(C)Cn1cnc2c(SCc3ccc(Cl)cc3Cl)nc(N)nc21
GI50 (UACC-62): 19.8 µM (inactive) | GI50 (HT-29): 27 µM (inactive) | GI50 (A498): 16.1 µM (inactive) | GI50 (SR): 4.38 µM (inactive) | GI50 (TK-10): 23.1 µM (inactive) | GI50 (UO-31): 23.3 µM (inactive) | GI50 (K562): 11.7 µM (inactive) | GI50 (BT-549): 29.2 µM (inactive) | GI50 (Hs-578T): 44.8 µM (inactive) | GI50 (MDA-N): 41.1 µM (inactive) | GI50 (IGROV-1): 48.8 µM (inactive) | GI50 (OVCAR-5): 37.8 µM (inactive) | GI50 (SF-539): 15.8 µM (inactive) | GI50 (SN12C): 47.3 µM (inactive) | GI50 (HCT-116): 23.2 µM (inactive) | GI50 (Malme-3M): 26.4 µM (inactive) | GI50 (A549): 25.1 µM (inactive) | GI50 (OVCAR-8): 27.7 µM (inactive) | GI50 (UACC-257): 15.5 µM (inactive) | GI50 (RPMI-8226): 10.1 µM (inactive) | GI50 (T47D): 13.5 µM (inactive) | GI50 (KM12): 27.2 µM (inactive) | GI50 (SNB-75): 42.8 µM (inactive) | GI50 (MCF7): 18.3 µM (inactive) | GI50 (PC-3): 16.5 µM (inactive) | GI50 (HOP-92): 26.2 µM (inactive) | GI50 (NCI/ADR-RES): 26.5 µM (inactive) | GI50 (HOP-62): 49.7 µM (inactive) | GI50 (EKVX): 14.5 µM (inactive) | GI50 (RXF 393): 17.9 µM (inactive) | GI50 (SK-MEL-5): 10 µM (inactive) | GI50 (HCT-15): 16 µM | GI50 (NCI-H522): 14.6 µM (inactive) | GI50 (M14): 32.4 µM (inactive) | GI50 (OVCAR-4): 59.2 µM (inactive) | GI50 (DU-145): > 100 µM (inactive) | GI50 (MDA-MB-231): 39.1 µM (inactive) | GI50 (OVCAR-3): 48.5 µM (inactive) | GI50 (NCI-H23): 26.1 µM (inactive) | GI50 (SK-MEL-28): 57.1 µM (inactive) | GI50 (COLO 205): 11.5 µM (inactive) | GI50 (MOLT-4): 7.57 µM (inactive) | GI50 (LOX IMVI): 18.7 µM (inactive) | GI50 (U-251): 27.5 µM (inactive) | GI50 (MDA-MB-435): 32.3 µM (inactive) | GI50 (786-0): 23.9 µM (inactive) | GI50 (CAKI-1): 49 µM (inactive) | GI50 (SK-MEL-2): 32.4 µM (inactive) | GI50 (SF-295): 23.3 µM (inactive) | GI50 (SW-620): 25.3 µM (inactive) | GI50 (SF-268): 34.8 µM (inactive) | GI50 (SK-OV-3): > 100 µM (inactive) | GI50 (ACHN): 20.6 µM (inactive) | GI50 (NCI-H460): 12 µM (inactive) | GI50 (SNB-19): 44.3 µM (inactive) | GI50 (HCC 2998): 13.9 µM (inactive)
